24 compounds from ChEMBL document CHEMBL1201862, “PubChem BioAssay data set” (2004) can be followed below.

Activity calls are given as the source filed them.

Experiment [1] addresses Voltage-dependent T-type calcium channel subunit alpha-1H (Homo sapiens, UniProt O95180). It counts as functional.
For experiment [2], the target named is T1, DNA repair and recombination protein RAD54-like (Homo sapiens, UniProt Q92698).
T1 sequence (Q92698 whole entry): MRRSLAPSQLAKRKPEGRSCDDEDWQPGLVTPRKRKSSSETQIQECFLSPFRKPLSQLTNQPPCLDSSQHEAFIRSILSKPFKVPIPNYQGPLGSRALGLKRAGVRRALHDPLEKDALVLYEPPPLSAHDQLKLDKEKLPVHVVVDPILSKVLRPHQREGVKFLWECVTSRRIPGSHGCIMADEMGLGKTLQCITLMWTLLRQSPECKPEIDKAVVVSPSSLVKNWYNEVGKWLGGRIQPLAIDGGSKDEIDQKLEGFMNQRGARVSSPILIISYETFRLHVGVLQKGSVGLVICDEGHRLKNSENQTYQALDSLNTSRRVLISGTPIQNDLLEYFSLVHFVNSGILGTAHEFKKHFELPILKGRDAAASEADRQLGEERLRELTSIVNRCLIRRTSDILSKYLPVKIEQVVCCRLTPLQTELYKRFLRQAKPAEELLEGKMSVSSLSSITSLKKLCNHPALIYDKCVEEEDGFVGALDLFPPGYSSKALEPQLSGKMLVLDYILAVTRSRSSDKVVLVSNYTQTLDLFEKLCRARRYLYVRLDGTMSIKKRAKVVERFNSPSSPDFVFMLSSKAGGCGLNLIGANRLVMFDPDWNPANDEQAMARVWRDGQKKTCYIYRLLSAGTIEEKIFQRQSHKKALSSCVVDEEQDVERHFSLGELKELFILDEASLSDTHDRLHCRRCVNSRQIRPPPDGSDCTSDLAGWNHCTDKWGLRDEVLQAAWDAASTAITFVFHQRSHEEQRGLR
Nature of the experiment: inhibitors of human RAD54 branch migration, confirmation, biochemical, fluorescence, cherry-picked samples, dose series (AID 651657). It counts as functional.

Experiment [3] has as its target T2, DNA repair protein RAD52 homolog (Homo sapiens, UniProt P43351).
T2 sequence (P43351 whole entry): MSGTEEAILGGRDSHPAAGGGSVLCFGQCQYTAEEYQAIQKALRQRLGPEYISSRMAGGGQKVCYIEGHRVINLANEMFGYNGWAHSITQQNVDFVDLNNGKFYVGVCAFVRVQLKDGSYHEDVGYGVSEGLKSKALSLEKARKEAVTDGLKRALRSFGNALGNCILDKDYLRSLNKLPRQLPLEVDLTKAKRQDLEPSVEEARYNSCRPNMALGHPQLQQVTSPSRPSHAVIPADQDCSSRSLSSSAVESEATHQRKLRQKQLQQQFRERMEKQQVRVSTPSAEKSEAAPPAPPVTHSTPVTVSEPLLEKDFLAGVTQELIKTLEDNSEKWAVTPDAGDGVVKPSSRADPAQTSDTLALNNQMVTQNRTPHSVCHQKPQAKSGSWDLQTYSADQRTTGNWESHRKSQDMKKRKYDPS
It counts as functional, biochemical.

The target of experiment [4] is T3, Polyadenylate-binding protein 1 (Homo sapiens, UniProt P11940). As to the kind of experiment: PABP1 MLLE–PAM2 interaction inhibitors, dose response, miRNA deadenylation inhibitor project, biochemical, fluorescence polarization, Cy5-PAM2 peptide, secondary (AID 602260). The format is functional. The settings on record: read-out: IC50_Mean.
T3 sequence (P11940 whole entry): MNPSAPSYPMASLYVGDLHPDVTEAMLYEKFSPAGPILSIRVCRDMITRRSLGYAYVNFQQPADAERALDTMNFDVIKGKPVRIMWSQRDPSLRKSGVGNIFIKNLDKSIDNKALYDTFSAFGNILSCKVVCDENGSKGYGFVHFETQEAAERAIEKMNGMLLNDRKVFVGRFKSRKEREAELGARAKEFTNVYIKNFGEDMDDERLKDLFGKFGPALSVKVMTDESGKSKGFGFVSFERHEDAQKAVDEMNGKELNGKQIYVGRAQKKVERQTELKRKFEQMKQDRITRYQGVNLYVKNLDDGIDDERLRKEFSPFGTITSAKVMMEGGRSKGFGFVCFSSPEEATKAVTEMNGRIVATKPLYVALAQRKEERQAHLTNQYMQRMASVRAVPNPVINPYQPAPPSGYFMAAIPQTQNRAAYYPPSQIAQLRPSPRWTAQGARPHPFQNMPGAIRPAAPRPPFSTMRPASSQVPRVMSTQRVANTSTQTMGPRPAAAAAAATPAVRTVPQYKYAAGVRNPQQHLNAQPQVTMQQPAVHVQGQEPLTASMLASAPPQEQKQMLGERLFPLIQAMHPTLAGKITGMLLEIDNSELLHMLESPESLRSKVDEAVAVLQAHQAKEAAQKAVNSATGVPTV
Experiment [5] concerns the target T3, Polyadenylate-binding protein 1. Nature of the experiment: PABP1 MLLE–PAM2 binding inhibitor potency, dose response, biochemical, fluorescence polarization, FITC-PAM2 peptide (AID 602259). The format is functional. The settings on record: read-out: IC50_Mean.
Another experiment addresses Prothrombin (Homo sapiens, UniProt P00734). As to the kind of experiment: Thrombin 1536 HTS Dose Response Confirmation. [Related pubchem assays: 1046 (Thrombin 1536 HTS; hits were confirmed in this assay)]. The format is functional.
For a further experiment, the target named is Nonstructural protein 1 (Influenza A virus, UniProt Q194T2). It counts as functional, Influenza A virus (A/California/07/2009(H1N1)).
Sequence of Nonstructural protein 1 (Q194T2 whole entry): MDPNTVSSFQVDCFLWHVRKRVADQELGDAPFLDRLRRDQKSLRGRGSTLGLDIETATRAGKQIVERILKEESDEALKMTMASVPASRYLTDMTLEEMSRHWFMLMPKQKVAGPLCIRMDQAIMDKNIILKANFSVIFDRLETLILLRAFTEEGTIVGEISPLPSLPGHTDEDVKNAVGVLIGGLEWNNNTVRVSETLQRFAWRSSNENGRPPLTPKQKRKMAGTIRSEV
For another experiment, the system named is HEK293. As to the kind of experiment: inhibitors of LMP1-driven NF-kB reporter, dose response, cell-based, HEK293, luciferase, cherry-pick (AID 588343). To be noted: Homo sapiens. The format is functional.
For experiment [6], the target named is T4, Heat shock factor protein 1 (Mus musculus, UniProt P38532).
T4 sequence (P38532 whole entry): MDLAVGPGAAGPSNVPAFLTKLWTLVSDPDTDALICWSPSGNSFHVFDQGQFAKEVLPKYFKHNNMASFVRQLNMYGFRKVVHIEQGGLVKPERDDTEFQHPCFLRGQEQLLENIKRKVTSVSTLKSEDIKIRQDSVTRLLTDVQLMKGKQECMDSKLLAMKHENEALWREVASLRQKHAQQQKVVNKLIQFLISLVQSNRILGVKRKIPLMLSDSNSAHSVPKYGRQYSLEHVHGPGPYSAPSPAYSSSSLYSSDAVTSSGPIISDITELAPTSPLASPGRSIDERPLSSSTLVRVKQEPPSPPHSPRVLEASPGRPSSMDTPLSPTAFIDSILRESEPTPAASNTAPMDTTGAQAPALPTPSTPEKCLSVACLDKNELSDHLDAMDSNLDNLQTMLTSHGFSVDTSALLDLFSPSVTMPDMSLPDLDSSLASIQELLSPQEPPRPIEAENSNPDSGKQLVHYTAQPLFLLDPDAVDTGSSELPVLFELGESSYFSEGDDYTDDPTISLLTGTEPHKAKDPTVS
As to the kind of experiment: HSF1 potentiators in luciferase reporter cells, confirmation, cell-based, NIH3T3, luminescence, dose retest (AID 435004).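 Note: stress induced by proteasome inhibitor MG132 added 30 min after compound; luciferase reporter driven by HSF1 response element in NIH3T3 cells; actives raise luminescence as potentiators of the MG132 stress response.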 The format is functional.

Experiment [7] in a line: inhibitors of intracellular T. cruzi replication, confirmation, NIH3T3 host cells, beta-gal luminescence (AID 2044).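 Note: intracellular parasites grown in NIH/3T3 mouse fibroblasts as host cells; luminescent beta-galactosidase reporter signal from transgenic T. cruzi replicating inside host cells; inhibitors lower the luminescence signal.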 It counts as functional, cell-based.
The nature of experiment [8]: cytotoxicity toward NIH3T3 fibroblasts, dose response, counter-screen, cell-based, ATP luminescence, mouse fibroblasts (AID 2010).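 Note: cells exposed to compound for about 90 hours before reading.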 It counts as functional.
Experiment [9] in a line: growth suppression of PTEN-null colon cells, dose response, cell-based, HCT116 PTEN knockout (AID 1047).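 Note: HCT116 colon tumor cells with PTEN knocked out; cells exposed to compound for 60 hours before readout; potency for loss of cell viability measured by luminescence.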 It counts as functional.
Experiment [10] can be described thus: growth suppression of beta-catenin-knockout colon cells, dose response, cell-based, HCT116, human colon tumor (AID 1045).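 Note: HCT116 colon tumor cells with beta catenin knocked out; cells exposed to compound for 60 hours.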 The format is functional.
In experiment [11] the target is T5, Replicative DNA helicase DnaB (Mycobacterium tuberculosis, UniProt P9WMR3).
T5 sequence (P9WMR3 whole entry): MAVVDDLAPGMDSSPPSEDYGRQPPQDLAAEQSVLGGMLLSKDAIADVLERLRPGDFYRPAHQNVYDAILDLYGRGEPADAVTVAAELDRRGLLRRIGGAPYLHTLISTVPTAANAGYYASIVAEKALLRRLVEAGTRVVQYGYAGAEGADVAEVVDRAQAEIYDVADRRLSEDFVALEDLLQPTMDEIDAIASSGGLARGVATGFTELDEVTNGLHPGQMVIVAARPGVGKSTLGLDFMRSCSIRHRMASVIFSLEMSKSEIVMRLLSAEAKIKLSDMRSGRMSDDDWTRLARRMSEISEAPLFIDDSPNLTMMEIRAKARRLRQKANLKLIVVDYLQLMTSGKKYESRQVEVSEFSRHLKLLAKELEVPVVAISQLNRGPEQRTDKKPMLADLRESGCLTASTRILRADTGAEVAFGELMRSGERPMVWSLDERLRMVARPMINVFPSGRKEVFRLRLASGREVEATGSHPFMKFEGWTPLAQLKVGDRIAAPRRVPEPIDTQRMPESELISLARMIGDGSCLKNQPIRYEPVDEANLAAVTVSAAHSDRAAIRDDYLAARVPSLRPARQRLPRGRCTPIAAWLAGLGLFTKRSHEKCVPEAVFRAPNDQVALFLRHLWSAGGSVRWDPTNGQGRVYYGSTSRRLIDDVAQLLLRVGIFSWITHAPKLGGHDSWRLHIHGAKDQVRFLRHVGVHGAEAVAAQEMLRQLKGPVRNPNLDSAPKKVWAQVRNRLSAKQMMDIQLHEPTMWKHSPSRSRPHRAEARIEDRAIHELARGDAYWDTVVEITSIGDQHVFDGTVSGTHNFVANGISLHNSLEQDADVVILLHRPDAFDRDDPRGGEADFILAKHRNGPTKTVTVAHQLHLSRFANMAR
As to the kind of experiment: DnaB intein splicing inhibitors, dose response, biochemical, cell-free fluorescence (AID 449749). The format is functional.

Another experiment has as its target T6, Protein RecA (Mycobacterium tuberculosis, UniProt P9WHJ3).
T6 sequence (P9WHJ3 whole entry): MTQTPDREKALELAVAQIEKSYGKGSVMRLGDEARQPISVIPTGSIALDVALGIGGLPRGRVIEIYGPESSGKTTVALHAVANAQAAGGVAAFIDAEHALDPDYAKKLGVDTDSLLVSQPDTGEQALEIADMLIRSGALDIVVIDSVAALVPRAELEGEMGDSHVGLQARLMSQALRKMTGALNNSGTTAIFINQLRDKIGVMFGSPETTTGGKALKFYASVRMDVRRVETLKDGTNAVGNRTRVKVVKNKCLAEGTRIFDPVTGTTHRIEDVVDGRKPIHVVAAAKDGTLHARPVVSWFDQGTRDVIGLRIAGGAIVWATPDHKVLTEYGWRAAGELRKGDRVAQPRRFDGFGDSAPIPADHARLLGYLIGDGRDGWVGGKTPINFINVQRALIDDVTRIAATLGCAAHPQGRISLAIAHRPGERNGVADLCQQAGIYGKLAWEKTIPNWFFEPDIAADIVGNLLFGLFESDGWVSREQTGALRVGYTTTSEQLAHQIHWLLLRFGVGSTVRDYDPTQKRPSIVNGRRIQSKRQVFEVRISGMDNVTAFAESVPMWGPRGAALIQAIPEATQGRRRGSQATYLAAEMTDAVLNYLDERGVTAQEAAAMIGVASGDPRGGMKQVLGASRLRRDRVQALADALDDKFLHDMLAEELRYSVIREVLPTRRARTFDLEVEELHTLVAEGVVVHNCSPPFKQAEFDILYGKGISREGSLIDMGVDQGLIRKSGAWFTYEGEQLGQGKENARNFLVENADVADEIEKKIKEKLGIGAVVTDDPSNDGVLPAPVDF
Nature of the experiment: Fluorescence Cell-Free Homogeneous Dose Retest to Identify Inhibitors of RecA-Intein Splicing Activity. [Related pubchem assays (depositor defined):AID2097, AID2223, AID489010, AID492950]. It counts as functional.

Sequence of Voltage-dependent T-type calcium channel subunit alpha-1H (O95180 whole entry): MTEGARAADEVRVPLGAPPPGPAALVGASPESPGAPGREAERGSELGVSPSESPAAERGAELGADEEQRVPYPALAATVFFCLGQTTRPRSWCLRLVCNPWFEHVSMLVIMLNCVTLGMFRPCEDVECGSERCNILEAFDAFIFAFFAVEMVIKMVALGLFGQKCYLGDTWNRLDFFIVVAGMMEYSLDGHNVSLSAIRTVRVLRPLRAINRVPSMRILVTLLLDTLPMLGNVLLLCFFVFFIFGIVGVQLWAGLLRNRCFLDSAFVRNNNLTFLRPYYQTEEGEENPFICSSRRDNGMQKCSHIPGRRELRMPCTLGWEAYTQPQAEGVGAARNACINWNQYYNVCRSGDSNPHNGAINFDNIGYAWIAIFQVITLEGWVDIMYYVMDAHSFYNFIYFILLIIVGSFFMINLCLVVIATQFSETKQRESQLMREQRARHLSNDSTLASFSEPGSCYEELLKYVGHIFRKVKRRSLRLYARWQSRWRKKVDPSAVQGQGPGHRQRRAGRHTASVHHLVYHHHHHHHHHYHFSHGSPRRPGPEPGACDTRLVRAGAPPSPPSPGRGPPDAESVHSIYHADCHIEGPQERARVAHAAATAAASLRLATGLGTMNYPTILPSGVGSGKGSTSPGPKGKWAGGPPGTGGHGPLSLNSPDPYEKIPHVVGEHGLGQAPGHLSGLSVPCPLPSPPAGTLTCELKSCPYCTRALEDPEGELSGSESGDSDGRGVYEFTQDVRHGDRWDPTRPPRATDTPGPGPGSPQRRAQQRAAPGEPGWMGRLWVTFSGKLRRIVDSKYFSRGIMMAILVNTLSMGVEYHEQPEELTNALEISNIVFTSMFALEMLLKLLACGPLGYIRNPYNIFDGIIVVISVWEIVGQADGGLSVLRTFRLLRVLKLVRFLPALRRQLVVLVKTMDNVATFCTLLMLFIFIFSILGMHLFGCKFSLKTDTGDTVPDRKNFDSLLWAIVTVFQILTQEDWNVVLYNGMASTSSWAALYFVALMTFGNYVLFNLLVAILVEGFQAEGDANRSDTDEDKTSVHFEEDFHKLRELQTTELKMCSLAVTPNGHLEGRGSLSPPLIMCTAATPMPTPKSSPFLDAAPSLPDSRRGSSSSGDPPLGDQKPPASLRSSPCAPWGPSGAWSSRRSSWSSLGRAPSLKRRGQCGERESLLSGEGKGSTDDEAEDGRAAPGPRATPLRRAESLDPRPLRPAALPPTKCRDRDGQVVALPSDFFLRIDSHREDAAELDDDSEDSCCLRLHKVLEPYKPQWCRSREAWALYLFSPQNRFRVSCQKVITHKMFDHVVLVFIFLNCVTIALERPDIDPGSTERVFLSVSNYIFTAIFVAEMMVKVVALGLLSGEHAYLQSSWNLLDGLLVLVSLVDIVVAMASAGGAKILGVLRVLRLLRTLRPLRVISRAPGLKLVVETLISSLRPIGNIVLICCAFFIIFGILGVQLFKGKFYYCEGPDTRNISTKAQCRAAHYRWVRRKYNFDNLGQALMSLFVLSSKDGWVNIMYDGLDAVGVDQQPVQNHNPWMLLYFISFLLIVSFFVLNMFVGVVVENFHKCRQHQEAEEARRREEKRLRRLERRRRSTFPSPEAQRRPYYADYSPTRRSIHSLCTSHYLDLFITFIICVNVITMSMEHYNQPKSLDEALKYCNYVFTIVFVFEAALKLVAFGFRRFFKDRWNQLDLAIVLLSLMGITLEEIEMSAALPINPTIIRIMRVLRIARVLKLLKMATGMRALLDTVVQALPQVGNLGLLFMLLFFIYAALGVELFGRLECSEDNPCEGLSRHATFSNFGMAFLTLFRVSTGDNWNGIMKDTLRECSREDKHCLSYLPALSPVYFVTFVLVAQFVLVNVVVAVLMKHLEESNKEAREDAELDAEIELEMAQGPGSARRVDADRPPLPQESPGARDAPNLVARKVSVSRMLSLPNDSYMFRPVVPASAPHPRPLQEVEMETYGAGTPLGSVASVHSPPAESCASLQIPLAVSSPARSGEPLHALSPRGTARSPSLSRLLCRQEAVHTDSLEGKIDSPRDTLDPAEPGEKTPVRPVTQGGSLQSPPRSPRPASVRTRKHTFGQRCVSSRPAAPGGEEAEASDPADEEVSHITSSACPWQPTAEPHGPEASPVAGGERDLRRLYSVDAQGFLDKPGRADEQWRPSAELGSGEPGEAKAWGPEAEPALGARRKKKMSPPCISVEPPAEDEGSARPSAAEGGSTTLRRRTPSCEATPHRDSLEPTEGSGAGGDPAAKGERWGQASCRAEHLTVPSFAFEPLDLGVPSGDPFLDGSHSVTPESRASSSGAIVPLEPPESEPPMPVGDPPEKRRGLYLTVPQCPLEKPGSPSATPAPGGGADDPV

With `Cc1ccc(-c2nnn(CC(=O)N(c3ccccc3F)C(CC(C)C)C(=O)NCC3CCCO3)n2)cc1` (stereo not given), the concentration giving a half-maximal response (EC50) in experiment [1] was 5.3 µM (active). The same measure, in the same setting: to `O=C(Nc1nc2ccccc2s1)C1CCCN1S(=O)(=O)c1ccc(Cl)cc1` (stereo not given) belongs 5.86 µM (active). On to `CN(C)CCCNc1nc2cc(-c3ccc4c(ccn4C)c3)sc2c(=O)n1C`, for which the values for the AC50 in [2] and in [3] were 28.7 µM (active) and 4.02 µM (active), respectively. As to `CCOc1ccc(Cn2c(SCCCCC#N)nc3c2c(=O)n(C)c(=O)n3C)cc1OCC`, the IC50 in [4] and in experiment [5] was > 66 µM (inactive) in each case. Consider `CCCCN(C)CCNC(=O)c1cc2cc3ccc(OC)cc3nc2o1`, for which the AC50 in experiment [2] was 50.9 µM (active). With `COc1ccc(CNc2nc(-c3cccnc3)nn2C(C)=O)cc1`, on Prothrombin, the IC50 is 0.0252 µM (active). For the compound `Clc1ccc(-c2cnnc(-c3ccccn3)n2)cc1`, at Nonstructural protein 1, the IC50 was 14.2 µM (active).

With `COc1ccc(/C=C2\SC(=O)N(CCCC(=O)Nc3ccc(C(=O)O)cc3)C2=O)cc1`, the half-maximal activity concentration (AC50) with HEK293 is 2.37 µM (active).

In the case of `O=C(CCC1COc2ccccc2O1)Nc1ccc(Cl)cn1` (stereo not given), the EC50 in experiment [1] was 2.94 µM (active). For `CC(=O)c1ccc(O)c(CSC2=NCCS2)c1`, the IC50 against Prothrombin is reported as > 50 µM (not active). As to `CCCc1c(C(=O)N/N=C(\C)c2ccccn2)nnn1-c1nonc1N`, in the experiment on HEK293, the concentration at half-maximal activity (AC50) is 9.69 µM (active). As for `O=C1C=C(O)c2c(O)cccc2C1=O`, at Prothrombin, the IC50 is > 50 µM (not active). `CCOC(=O)c1cnc2ccc(OC)cc2c1Nc1ccc(N2CCN(C)CC2)cc1`: the EC50 in experiment [6] is > 260 µM (inactive). Also, the AC50 in [2] is 34 µM (active). Consider `O=[N+]([O-])c1nn(-c2ccc3c(c2)OCCO3)[n+]([O-])c1NC1CCCCCC1`, for which the EC50 is 0.681 µM (active) in experiment [7] and > 30 µM (not active) in [8]. The IC50 on Nonstructural protein 1 is 44.6 µM (active).

In the case of `COc1ccc(C(C(O)C(=O)c2c[nH]c3ccccc23)N2CCN(c3ccccc3)CC2)cc1` (stereo not given), in experiment [1], the EC50 is 8.16 µM (active). With `Cc1c(O)c(CN(C)C)cc2c1oc(=O)c1ccccc12`, the AC50 in experiment [2] was 35.5 µM (active).

For the compound `Cc1nc(SCC(=O)c2cc3ccccc3oc2=O)c(C#N)c(-c2ccccc2)c1C(=O)Nc1ccccc1`, the EC50 in [9] was 8.4 µM (active); in [10] it was 7.01 µM (active). Regarding `COc1cccc(C(=O)Nc2n[nH]c(SCc3ccc(Cl)cc3)n2)c1`, the IC50 on Prothrombin was 2.94 µM (active). The AC50 in [11] was 2.78 µM (active). Besides, the EC50 on Protein RecA was 1.29 µM (active).

`O=C(Nc1cc(C(F)(F)F)cc(C(F)(F)F)c1)c1ccc(Cn2cc(C(F)(F)F)ccc2=O)cc1`: in experiment [1], the EC50 was 5.74 µM (active). On to `N#Cc1ccc(-c2ccc(F)cc2)nc1Sc1ccc(F)cc1`, for which the EC50 in experiment [9] was 20.6 µM (active); in [10], 28.7 µM (active). In the case of `CCC(C)[C@H](NC(=O)C1CC(=O)N(c2ccc3c(c2)OCO3)C1)C(=O)NC1CCCCC1` (stereo not given in full), the IC50 was > 66 µM (inactive) in experiment [4] and 54.9 µM (inactive) in experiment [5]. For the compound `CCOC(=O)c1cc(-c2ccc(OC)cc2)nc2c1c(C)nn2CCC(N)=S`, the IC50 in experiment [4] and in experiment [5] was > 66 µM (inactive) throughout. `CCCC(=O)n1nc(-c2ccc(Cl)cc2)nc1SC`: the IC50 at Prothrombin is 3.57 µM (active). On to `O=C(Nc1nc(-c2cccs2)cs1)c1ccco1`, for which, at Prothrombin, the IC50 was > 50 µM (not active).
